Experimental findings from ChEMBL document CHEMBL3217730, “Determination of structural requirements of influenza neuraminidase type A inhibitors and binding interaction analysis with the active site of A/H1N1 by 3D-QSAR CoMFA and CoMSIA modeling” (Medchemcomm, 2011) are described below.

For orientation: pIC50 means the IC50 on a negative log10 scale, so that one unit is a factor of ten.

The structures appear in SMILES notation.

In one assay the target is Neuraminidase (Influenza A virus, UniProt B4URF0). Kind of assay: Inhibition of Influenza virus neuraminidase A.
Chain of Neuraminidase (B4URF0 whole entry): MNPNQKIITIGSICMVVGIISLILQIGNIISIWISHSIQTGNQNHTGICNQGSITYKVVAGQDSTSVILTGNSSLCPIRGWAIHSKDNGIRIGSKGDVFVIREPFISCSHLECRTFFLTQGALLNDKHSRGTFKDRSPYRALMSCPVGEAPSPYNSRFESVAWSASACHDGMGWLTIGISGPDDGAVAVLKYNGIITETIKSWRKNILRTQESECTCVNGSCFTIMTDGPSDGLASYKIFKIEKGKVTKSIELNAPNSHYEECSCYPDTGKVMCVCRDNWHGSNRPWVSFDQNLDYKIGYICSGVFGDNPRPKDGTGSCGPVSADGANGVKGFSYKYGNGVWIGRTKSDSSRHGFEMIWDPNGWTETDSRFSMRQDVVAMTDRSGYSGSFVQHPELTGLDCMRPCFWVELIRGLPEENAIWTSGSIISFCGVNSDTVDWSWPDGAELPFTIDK
Conditions: not given
On the set-up: species or system unidentified influenza virus.
The molecule `CC(C)N(CCCO)C(=O)N1C[C@@H](N)[C@@H](C(=O)O)C1` gave a negative-log IC50 (pIC50) of 5.677.

Staying with this assay, now noted: read-out: IC50.
Consider `CCC(CC)NC(=O)[C@H](NC(C)=O)[C@H]1CC(C(=O)O)C[C@@H]1NC(=N)N` (stereo partly drawn), for which the IC50 turned out to be 25 µM.
In the case of `CCC(C)O[C@@H]1C=C(C(=O)O)C[C@H](N)[C@H]1NC(C)=O` (stereo partly drawn), the IC50 was 10 µM.
On the same count and under the same terms, the result for `CC(=O)N[C@@H]1[C@@H](N)CC(C(=O)O)=C[C@H]1OCCCc1ccc(-c2ccccc2)cc1` reads 90 µM; that for `CC[C@@H](CC1CCCCC1)O[C@@H]1C=C(C(=O)O)C[C@H](N)[C@H]1NC(C)=O`, 16 µM; that for `CCCN(CCC)C(=O)[C@@H](NC(C)=O)[C@H]1C[C@](O)(C(=O)O)C[C@@H]1NC(=N)N`, 4.9 µM.
As to `CC(C)N(CCN)C(=O)N1C[C@@H](N)[C@@H](C(=O)O)C1`, the IC50 turned out to be 46 µM.
Turning to `CCN(C(=O)N1C[C@@H](N)[C@@H](C(=O)O)C1)C(C)C`, the IC50 was found to be 1.6 µM.
On the same count and under the same terms, then `CCCO[C@@H]1C=C(C(=O)O)C[C@H](N=C(N)N)[C@H]1NC(C)=O`, with 2 µM.
Same read-out and setting: the result for `CC[C@@H](CCc1ccccc1)O[C@@H]1C=C(C(=O)O)C[C@H](N)[C@H]1NC(C)=O` reads 0.3 µM; that for `CCN(C(=O)N1C[C@H](N)[C@H](C(=O)O)[C@@H]1CNC(=O)C(F)(F)F)C(C)C`, 0.28 µM; that for `CCCN(CCC)C(=O)[C@@H](NC(C)=O)[C@H]1CC(C(=O)O)C[C@@H]1NC(=N)N` (stereo partly drawn), 0.043 µM.
Still for that read-out and setting: the result for `CC(C)N(CCCCCO)C(=O)N1C[C@@H](N)[C@@H](C(=O)O)C1` reads 2 µM; that for `CCCN(CCC)C(=O)N1C[C@@H](N)[C@@H](C(=O)O)C1`, 32 µM; that for `CCCCCO[C@@H]1C=C(C(=O)O)C[C@H](N)[C@H]1NC(C)=O`, 200 µM.
With `CC(=O)N[C@H]1[C@H](OC(C)C)C(C)=C(C(=O)O)C[C@@H]1N`, the IC50 worked out at 2.3 µM.
The same measure, in the same setting: the result for `CC(C)N(CCCC(=O)O)C(=O)N1C[C@@H](N)[C@@H](C(=O)O)C1` reads 19 µM; that for `CCO[C@@H]1C=C(C(=O)O)C[C@H](N)[C@H]1NC(C)=O`, 2000 µM; that for `CC[C@H](CCc1ccccc1)O[C@@H]1C=C(C(=O)O)C[C@H](N)[C@H]1NC(C)=O`, 12 µM.
On the same count and under the same terms, the result for `CCCCCCCO[C@@H]1C=C(C(=O)O)C[C@H](N)[C@H]1NC(C)=O` reads 270 µM; that for `CC(=O)N[C@@H]1[C@@H](N)[C@H](C)C(C(=O)O)=C[C@H]1OC(C)C`, 1.5 µM.
The same measure, in the same setting: the result for `CCN(C(=O)N1C[C@H](N)[C@H](C(=O)O)[C@@H]1CNS(C)(=O)=O)C(C)C` reads 130 µM; that for `CCCO[C@@H]1C=C(C(=O)O)C[C@H](N)[C@H]1NC(C)=O`, 180 µM; that for `CCCC[C@@H](NC(C)=O)[C@@H]1CC(C(=O)O)C[C@H]1NC(=N)N` (stereo partly drawn), 14.6 µM.
Turning to `CCCCCCC[C@H](CC)O[C@@H]1C=C(C(=O)O)C[C@H](N)[C@H]1NC(C)=O`, the IC50 worked out at 1 µM.
On to `CC[C@@H](C)O[C@@H]1C=C(C(=O)O)C[C@H](NC(=N)N)[C@H]1NC(C)=O`, for which the IC50 was found to be 0.5 µM.
As for `CCCCCCO[C@@H]1C=C(C(=O)O)C[C@H](N)[C@H]1NC(C)=O`, the IC50 is 150 µM.
On the same count and under the same terms, the result for `CCN(C(=O)N1C[C@H](N)[C@H](C(=O)O)[C@@H]1CNC(C)=O)C(C)C` reads 7.5 µM.
`CCCN(CCC)C(=O)[C@@H](NC(C)=O)[C@H]1C[C@@](O)(C(=O)O)C[C@@H]1NC(=N)N`: the IC50 is 2300 µM.
For the molecule `CC(=O)N[C@H]1[C@H](OC(C)C)C(F)=C(C(=O)O)C[C@@H]1N`, the IC50 is 0.003 µM.
The same measure, in the same setting: then `CCCCCCCCO[C@@H]1C=C(C(=O)O)C[C@H](N)[C@H]1NC(C)=O`, with 180 µM; and `CC(=O)N[C@@H]1[C@@H](N)CC(C(=O)O)=C[C@H]1OC1CCCCC1`, with 60 µM.
For the molecule `CCC(CC)C(=O)N1C[C@@H](N)[C@@H](C(=O)O)C1`, the IC50 was 22 µM.
Turning to `CC(C)N(CCc1ccccn1)C(=O)N1C[C@@H](N)[C@@H](C(=O)O)C1`, the IC50 amounted to 1.3 µM.
Still for that read-out and setting: then `CCCC[C@@H](NC(C)=O)[C@@H]1CC(C(=O)O)C[C@@H]1NC(=N)N` (stereo partly drawn), with 0.013 µM; and `CCCCCCCCCO[C@@H]1C=C(C(=O)O)C[C@H](N)[C@H]1NC(C)=O`, with 210 µM; and `CC(=O)N[C@@H]1[C@@H](N)CC(C(=O)O)=C[C@H]1Oc1ccccc1`, with 530 µM.
The same measure, in the same setting: the result for `CC(=O)N[C@@H]1[C@@H](N)CC(C(=O)O)=C[C@H]1OCC(C)C` reads 200 µM; that for `CC(=O)N[C@H]1[C@H](O)C=C(C(=O)O)C[C@@H]1N=C(N)N`, 100 µM; that for `CC[C@@H](CCC1CCCCC1)O[C@@H]1C=C(C(=O)O)C[C@H](N)[C@H]1NC(C)=O`, 1 µM.
As for `CO[C@@H]1C=C(C(=O)O)C[C@H](N)[C@H]1NC(C)=O`, the IC50 amounted to 3700 µM.
The same measure, in the same setting: the result for `CCCCCCCCCCO[C@@H]1C=C(C(=O)O)C[C@H](N)[C@H]1NC(C)=O` reads 600 µM.
Still for that read-out and setting: the result for `CCC(CC)NC(=O)[C@@H](NC(C)=O)[C@H]1CC(C(=O)O)C[C@@H]1NC(=N)N` (stereo partly drawn) reads 0.06 µM.
Still for that read-out and setting: the result for `CC(C)N(C(=O)N1C[C@@H](N)[C@@H](C(=O)O)C1)C(C)C` reads 4 µM; that for `CC(C)N(CCCCC(=O)O)C(=O)N1C[C@@H](N)[C@@H](C(=O)O)C1`, 1.3 µM; that for `CC(C)N(CCO)C(=O)N1C[C@@H](N)[C@@H](C(=O)O)C1`, 21 µM.
Consider `CCCCO[C@@H]1C=C(C(=O)O)C[C@H](N)[C@H]1NC(C)=O`, for which the IC50 was 300 µM.
Turning to `CC(=O)N[C@@H]1[C@@H](N)CC(C(=O)O)=C[C@H]1OC(C)C`, the IC50 is 0.001 µM.
Consider `CC(=O)N[C@H]1[C@H](O)C=C(C(=O)O)C[C@@H]1N`, for which the IC50 is 6300 µM.
As to `CCN(CC)C(=O)[C@@H](NC(C)=O)[C@H]1CC(C(=O)O)C[C@@H]1NC(=N)N` (stereo partly drawn), the IC50 came to 0.07 µM.
Same read-out and setting: the result for `CCCCO[C@@H]1C=C(C(=O)O)C[C@H](N=C(N)N)[C@H]1NC(C)=O` reads 3 µM; that for `C=CC(=O)NC[C@H]1[C@@H](C(=O)O)[C@@H](N)CN1C(=O)N(CC)C(C)C`, 96 µM; that for `CCN(CC)C(=O)N1C[C@@H](N)[C@@H](C(=O)O)C1`, 25 µM.
Consider `CCC(=O)NC[C@H]1[C@@H](C(=O)O)[C@@H](N)CN1C(=O)N(CC)C(C)C`, for which the IC50 was 16 µM.
Still for that read-out and setting: the result for `CC[C@H](C)O[C@@H]1C=C(C(=O)O)C[C@H](N)[C@H]1NC(C)=O` reads 9 µM; that for `CC[C@@H](Cc1ccccc1)O[C@@H]1C=C(C(=O)O)C[C@H](N)[C@H]1NC(C)=O`, 620 µM; that for `CC[C@H](C)O[C@@H]1C=C(C(=O)O)C[C@H](NC(=N)N)[C@H]1NC(C)=O`, 0.5 µM.
Same read-out and setting: then `C=CC[C@H](CC)O[C@@H]1C=C(C(=O)O)C[C@H](N)[C@H]1NC(C)=O`, with 1 µM; and `CCN(C(=O)N1C[C@H](C(=O)O)[C@H](NC(=N)N)C1)C(C)C`, with 13 µM.

The assay is the same for the next values; noted with them: read-out: pIC50 (converted).
As to `CC(=O)N[C@@H]1[C@@H](N)CC(C(=O)O)=C[C@H]1OCCCc1ccc(-c2ccccc2)cc1`, the IC50 was 0.0902 µM.
Same read-out and setting: the result for `CC[C@@H](CC1CCCCC1)O[C@@H]1C=C(C(=O)O)C[C@H](N)[C@H]1NC(C)=O` reads 0.016 µM.
Same read-out and setting: the result for `CCN(C(=O)N1C[C@@H](N)[C@@H](C(=O)O)C1)C(C)C` reads 1.06 µM; that for `CCCO[C@@H]1C=C(C(=O)O)C[C@H](N=C(N)N)[C@H]1NC(C)=O`, 0.002 µM; that for `CC[C@@H](CCc1ccccc1)O[C@@H]1C=C(C(=O)O)C[C@H](N)[C@H]1NC(C)=O`, 0.000301 µM.
With `CCCCCO[C@@H]1C=C(C(=O)O)C[C@H](N)[C@H]1NC(C)=O`, the IC50 is 0.2 µM.
`CCO[C@@H]1C=C(C(=O)O)C[C@H](N)[C@H]1NC(C)=O`: the IC50 is 2 µM.
As for `CC[C@H](CCc1ccccc1)O[C@@H]1C=C(C(=O)O)C[C@H](N)[C@H]1NC(C)=O`, the IC50 was 0.012 µM.
`CCCCCCCO[C@@H]1C=C(C(=O)O)C[C@H](N)[C@H]1NC(C)=O`: the IC50 was 0.27 µM.
For the molecule `CCCO[C@@H]1C=C(C(=O)O)C[C@H](N)[C@H]1NC(C)=O`, the IC50 was 0.18 µM.
Still for that read-out and setting: the result for `CCCCCCC[C@H](CC)O[C@@H]1C=C(C(=O)O)C[C@H](N)[C@H]1NC(C)=O` reads 0.001 µM.
With `CC[C@@H](C)O[C@@H]1C=C(C(=O)O)C[C@H](NC(=N)N)[C@H]1NC(C)=O`, the IC50 was 0.0005 µM.
On the same count and under the same terms, then `CCCCCCO[C@@H]1C=C(C(=O)O)C[C@H](N)[C@H]1NC(C)=O`, with 0.15 µM.
Still for that read-out and setting: then `CCCCCCCCO[C@@H]1C=C(C(=O)O)C[C@H](N)[C@H]1NC(C)=O`, with 0.18 µM; and `CC(=O)N[C@@H]1[C@@H](N)CC(C(=O)O)=C[C@H]1OC1CCCCC1`, with 0.0601 µM.
Still for that read-out and setting: then `CCCCCCCCCO[C@@H]1C=C(C(=O)O)C[C@H](N)[C@H]1NC(C)=O`, with 0.21 µM.
For `CC(=O)N[C@@H]1[C@@H](N)CC(C(=O)O)=C[C@H]1Oc1ccccc1`, the IC50 was 0.531 µM.
Same read-out and setting: the result for `CC(=O)N[C@@H]1[C@@H](N)CC(C(=O)O)=C[C@H]1OCC(C)C` reads 0.2 µM.
For `CC(=O)N[C@H]1[C@H](O)C=C(C(=O)O)C[C@@H]1N=C(N)N`, the IC50 is 0.1 µM.
On to `CC[C@@H](CCC1CCCCC1)O[C@@H]1C=C(C(=O)O)C[C@H](N)[C@H]1NC(C)=O`, for which the IC50 is 0.001 µM.
In the case of `CO[C@@H]1C=C(C(=O)O)C[C@H](N)[C@H]1NC(C)=O`, the IC50 was 3.71 µM.
Same read-out and setting: the result for `CCCCCCCCCCO[C@@H]1C=C(C(=O)O)C[C@H](N)[C@H]1NC(C)=O` reads 0.601 µM; that for `CCCCO[C@@H]1C=C(C(=O)O)C[C@H](N)[C@H]1NC(C)=O`, 0.301 µM; that for `CCN(CC)C(=O)[C@@H](NC(C)=O)[C@H]1CC(C(=O)O)C[C@@H]1NC(=N)N` (stereo partly drawn), 0.00701 µM.
`CCCCO[C@@H]1C=C(C(=O)O)C[C@H](N=C(N)N)[C@H]1NC(C)=O`: the IC50 is 0.00301 µM.
Same read-out and setting: the result for `CC[C@H](C)O[C@@H]1C=C(C(=O)O)C[C@H](N)[C@H]1NC(C)=O` reads 0.00902 µM.
Regarding `CC[C@@H](Cc1ccccc1)O[C@@H]1C=C(C(=O)O)C[C@H](N)[C@H]1NC(C)=O`, the IC50 was 0.621 µM.
As for `CC[C@H](C)O[C@@H]1C=C(C(=O)O)C[C@H](NC(=N)N)[C@H]1NC(C)=O`, the IC50 is 0.0005 µM.
As to `C=CC[C@H](CC)O[C@@H]1C=C(C(=O)O)C[C@H](N)[C@H]1NC(C)=O`, the IC50 was 0.001 µM.
